In patent US20250387409A1, “3-BETA-HYDROXY-3-ALPHA-ETHYL STEROIDS FOR MODULATION OF THE ALPHA-3 SUBTYPE OF THE GABAA RECEPTOR” (priority 2021, published 2025):

Columns and labels:
[1] = target: T1, human α1-β2-γ2L GABAA-receptor subtype (Homo sapiens, UniProt P14867+P47870); experiment: Patch clamp (Dynaflow) GABA-mediated current response, HEK-293 cells, α1β2γ2L; format: cell-based; details: 1 μM steroid, α1β2γ2L; for effect on GABA response: mean ± SEM, + enhancement, − reduction
T1 construct: expressed in transfected cells
T1 sequence (P14867 28-456): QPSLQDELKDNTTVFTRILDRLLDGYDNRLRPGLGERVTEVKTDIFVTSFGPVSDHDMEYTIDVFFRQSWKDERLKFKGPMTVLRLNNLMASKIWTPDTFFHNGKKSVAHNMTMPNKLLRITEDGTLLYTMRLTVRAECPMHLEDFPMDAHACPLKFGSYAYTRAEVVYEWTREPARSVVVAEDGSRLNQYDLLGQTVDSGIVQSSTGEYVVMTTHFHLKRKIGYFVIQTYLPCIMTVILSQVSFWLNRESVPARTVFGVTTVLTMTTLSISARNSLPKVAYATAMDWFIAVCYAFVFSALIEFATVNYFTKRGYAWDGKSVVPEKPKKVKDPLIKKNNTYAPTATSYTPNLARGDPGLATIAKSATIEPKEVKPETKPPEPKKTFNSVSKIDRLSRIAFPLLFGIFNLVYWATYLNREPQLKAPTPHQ
T1 sequence (P47870 26-474 isoform P47870-1 limits assumed): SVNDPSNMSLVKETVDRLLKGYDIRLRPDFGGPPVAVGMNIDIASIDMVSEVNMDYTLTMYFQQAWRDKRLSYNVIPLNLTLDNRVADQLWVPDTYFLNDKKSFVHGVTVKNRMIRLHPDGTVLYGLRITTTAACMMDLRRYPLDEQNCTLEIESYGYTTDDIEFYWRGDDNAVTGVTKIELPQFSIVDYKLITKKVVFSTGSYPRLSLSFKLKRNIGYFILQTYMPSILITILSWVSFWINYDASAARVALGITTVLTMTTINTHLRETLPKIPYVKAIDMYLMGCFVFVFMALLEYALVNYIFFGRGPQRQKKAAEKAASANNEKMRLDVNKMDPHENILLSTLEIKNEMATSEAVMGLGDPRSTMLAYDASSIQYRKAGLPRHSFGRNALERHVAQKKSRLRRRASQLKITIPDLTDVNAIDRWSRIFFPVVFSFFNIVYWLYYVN
T1 sequence (P18507 40-475 partner): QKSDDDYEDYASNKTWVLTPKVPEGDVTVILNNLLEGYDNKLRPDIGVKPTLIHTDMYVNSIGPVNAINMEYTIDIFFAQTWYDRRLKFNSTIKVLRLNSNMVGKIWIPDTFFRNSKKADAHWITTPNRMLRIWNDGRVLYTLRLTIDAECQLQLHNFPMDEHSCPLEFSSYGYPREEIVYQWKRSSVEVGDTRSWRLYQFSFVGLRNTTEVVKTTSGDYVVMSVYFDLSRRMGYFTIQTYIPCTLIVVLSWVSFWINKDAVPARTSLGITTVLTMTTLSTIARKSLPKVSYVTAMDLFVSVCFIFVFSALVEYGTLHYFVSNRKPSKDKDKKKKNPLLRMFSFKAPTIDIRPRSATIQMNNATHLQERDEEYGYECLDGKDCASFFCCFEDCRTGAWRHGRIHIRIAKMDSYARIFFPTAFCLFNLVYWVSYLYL
Source text: (§1) In these tests the protocol was optimized to be like the physiological conditions in the synaptic cleft.
(§2) Preparation of cell lines: HEK-293 cells permanently transfected with the human α1-β2-γ2L, α2-β3-γ2S, α3-ββ3-γ2L, α4-β3-δ or α5-β3-γ2L GABAA-receptor subtypes were used. The cell lines permanently expressing a functional human GABAA-receptor was made in following steps. The human GABAA-receptor subunits e.g. α1 (308-1727 NM_000806), β2 (214-1679 NM_000813), γ2L (290-1785 NM_198904), α2, β3, γ2S, α3, α4, δ and α5 including introduced Kozac sequences just before the start codons were subcloned into mammalian expression vectors containing Geneticin, Hygromycin B, and Zeocin resistance, respectively. A HEK-293 cell line stably expressing the three GABAA-receptor subunits was produced by transfection of the subunits, one at a time. The transfection was followed by selection with the appropriate antibiotics, cell separation with the use of subunit specific antibodies and production of single cell colonies. Produced cell lines were analysed with immunocytochemistry for the three GABAA-receptor subunits, followed by selection of a suitable cell line showing, for the GABAA-receptor normal and good reactivity in a patch-clamp analysis (see below) towards GABA and the GAMS THDOC.
(§3) Cell culture: HEK-293 cells, permanently transfected with human α1-β2-γ2L, α2-β3-γ2S, α3-β3-γ2L, α4-β3-δ and α5-β3-γ2L GABAA-receptor subtypes, were seeded at a density of 3×10^4/25 cm^2 in cell binding culture flask. The transfected cells were used for patch-clamp experiments 3 days after seeding. When using the cells for patch-clamp experiments the cells were washed twice with oxygen-bubbled EC-solution (see below). About 5 mL EC was then added and the cells were kept in the incubator for about 15 minutes. After 15 minutes the cells came loose from the bottom of the flask and were separated by carefully sucking couple of times with a Pasteur pipette.
(§4) Dynaflow™ system: Dynaflow™ system with resolve chips was used for all patch-clamp experiments. The resolve chips is made of non-sticky materials. The channel width is 150 μm and the height 50 μm. The well volume is 280 μL. Run time at the flow rate of 26 μL/min is […]. The pump settings were as follow: Omnifix 2 ml syringe with inner diameter of 9.65 mm was used. The syringe pump flow rate of chip was 26 μL/min.
(§5) Steroids and GABA: GABA was dissolved in EC-solution by ultrasound for about 40 minutes to the concentration of 10 mM in room temperature. All steroids were dissolved to the concentration of 6 mM in dimethyl sulfoxide (DMSO). The DMSO concentration was 0.1% in all end-solutions, including the wash solution (EC) and the solution with GABA alone. End-solutions are the solutions added into the wells of the chip.
Electrophysiology: Patch electrodes were pulled from 1.5 mm O.D., 0.86 mm I.D. borosilicate capillary glass without filament. […] The intracellular solution (IC) comprised of (in mM): 140 Cs-gluconate, 3.0 NaCl, 1.2 MgCl2, 1.0 EGTA, 10 HEPES. pH was adjusted to 7.2 with CsOH. The extracellular (EC) solution used during recordings contained (in mM): 137 NaCl, 5.0 KCl, 1.0 CaCl2), 1.2 MgCl2, 10 HEPES, 10 glucose. pH was adjusted with NaOH to 7.4. After compensating for the liquid junction potential, a steady holding potential of −17 mV was used in all experiments. In physiological conditions the HEK-293 has a resting potential at −40 mV and a low concentration of chloride ions inside the cell. […]

[2] = target: T2, human α3-β3-γ2L GABAA-receptor subtype (Homo sapiens, UniProt P28472+P34903); experiment: Patch clamp (Dynaflow) GABA-mediated current response, HEK-293 cells, α3β3γ2L; format: cell-based; details: for effect on GABA (in words) / effect on GABA response: 1 μM steroid; for activation of the receptor in the absence of GABA / Imax on 100 μM GABA mediated current response: 0.01-10 μM steroid; for activation of the receptor in the absence of GABA: no GABA, data not shown; for Imax on 100 μM GABA mediated current response: from best fit curve
T2 construct: expressed in transfected cells
T2 sequence (P34903 29-492): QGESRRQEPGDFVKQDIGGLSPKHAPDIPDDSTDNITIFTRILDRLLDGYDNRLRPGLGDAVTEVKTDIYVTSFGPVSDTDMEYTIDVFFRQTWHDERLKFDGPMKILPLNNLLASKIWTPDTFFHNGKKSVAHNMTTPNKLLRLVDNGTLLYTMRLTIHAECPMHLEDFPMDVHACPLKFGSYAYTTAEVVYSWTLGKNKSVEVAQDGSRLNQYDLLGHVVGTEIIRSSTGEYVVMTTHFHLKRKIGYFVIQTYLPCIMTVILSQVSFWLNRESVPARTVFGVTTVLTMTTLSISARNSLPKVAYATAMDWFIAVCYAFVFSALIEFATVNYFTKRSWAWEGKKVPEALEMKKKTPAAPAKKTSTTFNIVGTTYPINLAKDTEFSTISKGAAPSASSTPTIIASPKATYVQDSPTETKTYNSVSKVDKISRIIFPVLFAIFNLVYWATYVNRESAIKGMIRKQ
T2 sequence (P28472 26-473): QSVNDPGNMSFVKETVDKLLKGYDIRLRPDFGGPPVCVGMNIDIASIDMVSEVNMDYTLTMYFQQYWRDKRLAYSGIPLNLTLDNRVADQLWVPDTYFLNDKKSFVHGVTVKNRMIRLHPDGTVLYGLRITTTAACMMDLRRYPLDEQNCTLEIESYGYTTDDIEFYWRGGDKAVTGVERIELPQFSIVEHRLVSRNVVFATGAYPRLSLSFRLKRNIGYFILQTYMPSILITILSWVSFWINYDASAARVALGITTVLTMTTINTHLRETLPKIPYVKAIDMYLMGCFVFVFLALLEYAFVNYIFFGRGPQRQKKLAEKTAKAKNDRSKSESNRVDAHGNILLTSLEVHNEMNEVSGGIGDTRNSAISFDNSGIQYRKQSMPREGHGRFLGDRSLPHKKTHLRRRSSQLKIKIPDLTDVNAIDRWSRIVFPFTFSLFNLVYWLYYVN
T2 sequence (P18507 40-475 partner): as the sequence (P18507 40-475 partner) above
Source text: as §1, §2, §3, §4, §5
(§6) Electrophysiology: Patch electrodes were pulled from 1.5 mm O.D., 0.86 mm I.D. borosilicate capillary glass without filament. […] The intracellular solution (IC) comprised of (in mM): 140 Cs-gluconate, 3.0 NaCl, 1.2 MgCl2, 1.0 EGTA, 10 HEPES. pH was adjusted to 7.2 with CsOH. The extracellular (EC) solution used during recordings contained (in mM): 137 NaCl, 5.0 KCl, 1.0 CaCl2), 1.2 MgCl2, 10 HEPES, 10 glucose. pH was adjusted with NaOH to 7.4. After compensating for the liquid junction potential, a steady holding potential of −17 mV was used in all experiments. In physiological conditions the HEK-293 has a resting potential at −40 mV and a low concentration of chloride ions inside the cell. By using the holding potential of-17 mV and the intracellular solution with low chloride ion concentration the chloride ions flux into the cell when the receptors are activated. All experiments were performed at room temperature (21 to 23° C.). The following standard protocol was used for all experiments.
(§7) GABA applications: By using the Dynaflow equipment it is possible to study transfected HEK-293 during almost physiological conditions.

[3] = target: T3, human α4-β3-δ GABAA-receptor subtype (Homo sapiens, UniProt P28472+P48169); experiment: Patch clamp (Dynaflow) GABA-mediated current response, HEK-293 cells, α4β3δ; format: cell-based; details: 1 μM steroid
T3 construct: expressed in transfected cells
T3 sequence (P48169 36-554): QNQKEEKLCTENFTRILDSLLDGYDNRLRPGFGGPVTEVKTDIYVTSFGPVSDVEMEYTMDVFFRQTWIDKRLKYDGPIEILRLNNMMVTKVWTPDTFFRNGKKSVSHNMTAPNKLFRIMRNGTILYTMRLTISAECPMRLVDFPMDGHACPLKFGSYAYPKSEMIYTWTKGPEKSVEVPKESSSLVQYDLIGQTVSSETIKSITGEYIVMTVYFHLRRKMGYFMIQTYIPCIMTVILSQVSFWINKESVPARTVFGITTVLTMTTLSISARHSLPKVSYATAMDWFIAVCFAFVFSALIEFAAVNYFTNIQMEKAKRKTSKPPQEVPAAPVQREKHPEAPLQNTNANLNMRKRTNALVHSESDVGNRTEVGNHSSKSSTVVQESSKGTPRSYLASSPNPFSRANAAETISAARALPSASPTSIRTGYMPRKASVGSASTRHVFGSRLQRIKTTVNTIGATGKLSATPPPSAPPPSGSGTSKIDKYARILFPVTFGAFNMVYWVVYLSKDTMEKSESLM
T3 sequence (P28472 26-473): as the sequence (P28472 26-473) above
T3 sequence (O14764 25-452 partner): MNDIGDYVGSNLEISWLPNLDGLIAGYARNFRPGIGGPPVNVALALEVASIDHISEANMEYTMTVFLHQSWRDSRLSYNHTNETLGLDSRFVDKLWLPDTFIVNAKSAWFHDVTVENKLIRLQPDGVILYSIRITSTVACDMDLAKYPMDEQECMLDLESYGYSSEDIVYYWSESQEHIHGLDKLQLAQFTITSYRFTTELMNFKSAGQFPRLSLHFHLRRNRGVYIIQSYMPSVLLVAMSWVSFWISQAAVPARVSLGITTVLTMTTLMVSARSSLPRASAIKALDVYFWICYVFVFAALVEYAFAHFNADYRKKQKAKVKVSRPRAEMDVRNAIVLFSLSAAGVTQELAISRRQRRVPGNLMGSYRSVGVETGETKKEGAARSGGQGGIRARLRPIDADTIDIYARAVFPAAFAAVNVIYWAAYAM
Source text: as §1, §2, §3, §4
(§8) Steroids and GABA: GABA was dissolved in EC-solution by ultrasound for about 40 minutes to the concentration of 10 mM in room temperature. All steroids were dissolved to the concentration of 6 mM in dimethyl sulfoxide (DMSO). The DMSO concentration was 0.1% in all end-solutions, including the wash solution (EC) and the solution with GABA alone. End-solutions are the solutions added into the wells of the chip. […]

[4] = target: T4, human α2-β3-γ2S GABAA-receptor subtype (Homo sapiens, UniProt P28472+P47869); experiment: Patch clamp (Dynaflow) GABA-mediated current response, HEK-293 cells, α2β3γ2S; format: cell-based; details: 1 μM steroid
T4 construct: expressed in transfected cells
T4 sequence (P47869 29-451): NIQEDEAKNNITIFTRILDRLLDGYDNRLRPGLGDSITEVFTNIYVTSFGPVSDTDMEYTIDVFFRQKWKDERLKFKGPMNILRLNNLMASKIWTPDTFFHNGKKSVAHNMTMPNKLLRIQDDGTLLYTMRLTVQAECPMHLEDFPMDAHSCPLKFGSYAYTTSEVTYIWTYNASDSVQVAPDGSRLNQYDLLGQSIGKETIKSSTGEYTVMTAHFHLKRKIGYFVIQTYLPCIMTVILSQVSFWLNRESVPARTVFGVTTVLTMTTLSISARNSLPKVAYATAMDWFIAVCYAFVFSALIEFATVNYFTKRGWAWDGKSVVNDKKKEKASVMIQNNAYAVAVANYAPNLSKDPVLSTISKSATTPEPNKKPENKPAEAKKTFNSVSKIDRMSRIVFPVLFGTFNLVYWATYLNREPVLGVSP
T4 sequence (P28472 26-473): as the sequence (P28472 26-473) above
T4 sequence (P18507 40-467 isoform P18507-1 partner limits assumed): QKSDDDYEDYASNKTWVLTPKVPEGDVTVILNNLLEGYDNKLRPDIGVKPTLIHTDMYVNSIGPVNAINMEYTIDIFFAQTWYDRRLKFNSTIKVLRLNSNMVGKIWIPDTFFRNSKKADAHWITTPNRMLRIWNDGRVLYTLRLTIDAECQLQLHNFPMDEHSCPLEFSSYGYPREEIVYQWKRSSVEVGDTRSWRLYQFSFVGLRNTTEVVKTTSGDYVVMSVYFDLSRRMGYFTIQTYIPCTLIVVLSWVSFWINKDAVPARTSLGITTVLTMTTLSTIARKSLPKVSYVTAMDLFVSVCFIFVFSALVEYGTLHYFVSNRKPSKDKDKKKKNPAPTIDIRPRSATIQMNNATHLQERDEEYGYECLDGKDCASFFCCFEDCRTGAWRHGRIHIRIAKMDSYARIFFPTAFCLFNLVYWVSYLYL
Source text: as §1, §2, §3, §4, §8

[5] = target: T5, human α5-β3-γ2L GABAA-receptor subtype (Homo sapiens, UniProt P28472+P31644); experiment: Patch clamp (Dynaflow) GABA-mediated current response, HEK-293 cells, α5β3γ2L; format: cell-based; details: 1 μM steroid
T5 construct: expressed in transfected cells
T5 sequence (P31644 32-462): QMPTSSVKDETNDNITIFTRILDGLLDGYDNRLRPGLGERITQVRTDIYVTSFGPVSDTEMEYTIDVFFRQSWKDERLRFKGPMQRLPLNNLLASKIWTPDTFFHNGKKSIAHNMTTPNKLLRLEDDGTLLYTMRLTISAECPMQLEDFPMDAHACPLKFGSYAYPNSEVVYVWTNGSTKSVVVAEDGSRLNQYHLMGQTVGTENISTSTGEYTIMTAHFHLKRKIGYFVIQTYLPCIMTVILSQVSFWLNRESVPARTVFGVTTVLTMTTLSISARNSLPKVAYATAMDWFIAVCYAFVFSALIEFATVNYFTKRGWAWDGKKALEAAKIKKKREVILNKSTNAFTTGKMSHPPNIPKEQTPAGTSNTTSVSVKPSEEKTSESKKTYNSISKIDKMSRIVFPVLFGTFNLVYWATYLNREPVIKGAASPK
T5 sequence (P28472 26-473): as the sequence (P28472 26-473) above
T5 sequence (P18507 40-475 partner): as the sequence (P18507 40-475 partner) above
Source text: as §1, §2, §3, §4, §8

[6] = target: T6, human GABAA-receptor subtype α3β3γ2L (Homo sapiens, UniProt P28472+P34903); experiment: Patch clamp (Dynaflow) THDOC enhancement of GABA response, HEK-293 cells, α3β3γ2L; format: cell-based; details: for reduction of THDOC-enhanced GABA effect, Mean ± SEM %: 100 nM THDOC, 100 μM GABA, GABA response subtracted
T6 construct: expressed in transfected cells
T6 sequence (P34903 29-492): as the sequence (P34903 29-492) above
T6 sequence (P28472 26-473): as the sequence (P28472 26-473) above
T6 sequence (P18507 40-475 partner): as the sequence (P18507 40-475 partner) above
Source text: as §1, §2, §3, §4, §5, §6, §7

GABAA-receptors = experiment: Patch clamp, steroid alone without GABA present; format: cell-based, human
Source text: as §1
as §2, with “THDOC. […]” for “THDOC.”

Row | Structure (SMILES) | effect on GABA (in words) [1] | effect on GABA response [1] | IC50 [2] | effect on GABA (in words) ([2]; α3β3γ2L) | effect on GABA response ([2]; α3β3γ2L) | activation of the receptor in the absence of GABA [2] | Imax on 100 μM GABA mediated current response ([2]; α3β3γ2L) | effect on 100 μM GABA response, Mean ± SEM % ([2]; steroid conc. 0.01 μM, α3β3γ2L) | effect on 100 μM GABA response, Mean ± SEM % ([2]; steroid conc. 0.03 μM, α3β3γ2L) | effect on 100 μM GABA response, Mean ± SEM % ([2]; steroid conc. 0.1 μM, α3β3γ2L) | effect on 100 μM GABA response, Mean ± SEM % ([2]; steroid conc. 0.3 μM, α3β3γ2L) | effect on 100 μM GABA response, Mean ± SEM % ([2]; steroid conc. 1 μM, α3β3γ2L) | effect on 100 μM GABA response, Mean ± SEM % ([2]; steroid conc. 3 μM, α3β3γ2L) | effect on 100 μM GABA response, Mean ± SEM % ([2]; steroid conc. 10 μM, α3β3γ2L) | effect on GABA (in words) [3] | effect on GABA response [3] | effect on GABA (in words) [4] | effect on GABA response [4] | effect on GABA (in words) [5] | effect on GABA response [5] | further results
1 | CC[C@]1(O)CC[C@@]2(C)[C@@H](CC[C@@H]3[C@@H]2CC[C@]2(C)[C@@H](C(C)=O)CC[C@@H]32)C1 [3α-ethyl-3β-hydroxy-5α-pregnan-20-one] | agonistic enhancing effect | +6.0 ± 2.0% | 1.7 µM | antagonizing effect | −8.5 ± 1.9% | did activate the receptor in the absence of GABA | −47% | +3.7 ± 2.4% | +9.1 ± 4.4% | +1.2 ± 4.2% | +15 ± 4.7% | −8.1 ± 2.7% | −32 ± 4.0% | −46 ± 6.8% | no significant antagonistic or agonistic effect | +6.5 ± 2.5% | no significant antagonistic or agonistic effect | +0.6 ± 2.3% | no significant antagonistic or agonistic effect | +3.2 ± 2.6% | significant reducing effect on 100 μM GABA response ([2]; at 3 μM, α3β3γ2L): more than 30%; IC50 [6]: 0.4 µM; block of the THDOC enhancement ([6]; 3 μM steroid): completely block the THDOC enhancement; effect on THDOC's autonomic opening of the α3β3γ2L GABAA-receptor ([6]; in the range of the vehicle): slight agonistic effect; reduction of THDOC-enhanced GABA effect, Mean ± SEM % ([6]; steroid conc. 0.03 μM): +19 ± 7.4%; reduction of THDOC-enhanced GABA effect, Mean ± SEM % ([6]; steroid conc. 0.1 μM): −7.7 ± 12%; reduction of THDOC-enhanced GABA effect, Mean ± SEM % ([6]; steroid conc. 0.3 μM): −34 ± 6.7%; reduction of THDOC-enhanced GABA effect, Mean ± SEM % ([6]; steroid conc. 1 μM): −78 ± 8.8%; reduction of THDOC-enhanced GABA effect, Mean ± SEM % ([6]; steroid conc. 3 μM): −141 ± 15%; concentrations at which antagonist against THDOC enhancement of GABA ([6]; α3β3γ2L): above 300 nM; effect on the GABAA-receptors alone without GABA present (GABAA-receptors): no effect
2 | CC[C@]1(O)CC[C@@]2(C)[C@@H](CC[C@@H]3[C@@H]2CC[C@]2(C)C(=O)CC[C@@H]32)C1 [3α-ethyl-3β-hydroxy-5α-androstan-17-one] | significant antagonistic effect | −9.3 ± 1.3% | 0.9 µM | significant antagonistic effect | −38 ± 2.4% | did activate the receptor in the absence of GABA | −77% | +6.6 ± 2.2% | −1.6 ± 0.7% | +4.4 ± 3.0% | −11 ± 0.7% | −39 ± 3.1% | −67 ± 3.0% | −75 ± 3.0% | significant antagonistic effect | −12 ± 2.3% | significant antagonistic effect | −29 ± 1.3% | significant antagonistic effect | −38 ± 2.0% | significant reducing effect on 100 μM GABA response ([2]; at 0.3 μM, α3β3γ2L): more than 10%; concentration at which antagonistic effect against GABAs effect is seen ([2]; α3β3γ2L): ≥ 0.3 µM; reduction of THDOC-enhanced GABA effect, Mean ± SEM % ([6]; steroid conc. 0.03 μM): −4.4 ± 8.5%; reduction of THDOC-enhanced GABA effect, Mean ± SEM % ([6]; steroid conc. 0.1 μM): −35 ± 8.8%; reduction of THDOC-enhanced GABA effect, Mean ± SEM % ([6]; steroid conc. 0.3 μM): −72 ± 8.3%; reduction of THDOC-enhanced GABA effect, Mean ± SEM % ([6]; steroid conc. 1 μM): −120 ± 5.6%; reduction of THDOC-enhanced GABA effect, Mean ± SEM % ([6]; steroid conc. 3 μM): −202 ± 13%; concentration at which antagonistic effect on THDOC enhancement of GABA is seen ([6]; α3β3γ2L): ≥ 0.1 µM; effect on the GABAA-receptors alone without GABA present (GABAA-receptors): no effect
